# Source: patent US10477864B2, “Microbiocidal quinoline (thio)carboxamide derivatives” (priority 2016, dated 2019)
# Tests used:
# [1] = system: Botryotinia fuckeliana (Botrytis cinerea); assay: Botryotinia fuckeliana (Botrytis cinerea) / liquid culture (gray mould); format: cell-based; conditions: 72 h, read-out: control of Botryotinia fuckeliana
# Fusarium culmorum [2] = assay: whole plant or invertebrate; format: in vivo; conditions: in Triticum aestivum, read-out: control of Fusarium culmorum
# [3] = system: Glomerella lagenarium (Colletotrichum lagenarium); assay: Glomerella lagenarium (Colletotrichum lagenarium) / liquid culture (anthracnose); format: cell-based; conditions: Colletotrichum orbiculare; read-out: control of Glomerella lagenarium
# Fusarium culmorum [4] = assay: microbe, parasite or virus in culture; format: cell-based; conditions: read-out: control of Fusarium culmorum
# [5] = system: Monographella nivalis (Microdochium nivale); assay: Monographella nivalis (Microdochium nivale) / liquid culture (foot rot cereals); format: cell-based; conditions: 96 h, read-out: control of Monographella nivalis
SMILES,inhibition of growth at 200 ppm [1],pest or weed control at 200 ppm (Fusarium culmorum [2]),inhibition of growth at 200 ppm [3],inhibition of growth at 200 ppm (Fusarium culmorum [4]),melting point,inhibition of growth at 200 ppm [5]
"Cc1cccc2ncc(C(=O)NC(C)(Cc3ccccc3)CC(F)(F)F)cc12 (stereo not drawn) [Compound E-86, N-(1-benzyl-3,3,3-trifluoro-1-methyl-propyl)-5-methyl-quinoline-3-carboxamide]",≥ 80%,≥ 80%,≥ 80%,≥ 80%,101 to 103 °C,–
"C/C=C/C(C)(Cc1ccccc1)NC(=O)c1cnc2ccccc2c1 (stereo not drawn) [Compound E-88, N-[(E)-1-benzyl-1-methyl-but-2-enyl]quinoline-3-carboxamide]",≥ 80%,≥ 80%,–,≥ 80%,–,≥ 80%
"Cc1c(C(=O)NC(C)(Cc2ccccc2)CC(F)(F)F)cnc2c(F)cccc12 (stereo not drawn) [Compound E-90, N-(1-benzyl-3,3,3-trifluoro-1-methyl-propyl)-8-fluoro-4-methyl-quinoline-3-carboxamide]",≥ 80%,≥ 80%,≥ 80%,≥ 80%,154 to 158 °C,–
"C=CCC(Cc1ccccc1)(NC(=O)c1cnc2c(F)cccc2c1)C(F)(F)F (stereo not drawn) [Compound E-92, N-[1-benzyl-1-(trifluoromethyl)but-3-enyl]-8-fluoro-quinoline-3-carboxamide]",≥ 80%,≥ 80%,≥ 80%,≥ 80%,–,≥ 80%
"CC(Cc1ccccc1)(CC(F)(F)F)NC(=O)c1cnc2c(Cl)c(F)ccc2c1 (stereo not drawn) [Compound E-93, N-(1-benzyl-3,3,3-trifluoro-1-methyl-propyl)-8-chloro-7-fluoro-quinoline-3-carboxamide]",≥ 80%,≥ 80%,≥ 80%,≥ 80%,150 to 152 °C,–
"CC(C=C(F)F)(Cc1ccccc1)NC(=O)c1cnc2c(F)cccc2c1 (stereo not drawn) [Compound E-94, N-(1-benzyl-3,3-difluoro-1-methyl-allyl)-8-fluoro-quinoline-3-carboxamide]",≥ 80%,≥ 80%,≥ 80%,≥ 80%,99 to 101 °C,–
"CC(Cc1ccccc1)(CC(F)(F)Cl)NC(=O)c1cnc2c(F)cccc2c1 (stereo not drawn) [Compound E-97, N-(1-benzyl-3-chloro-3,3-difluoro-1-methyl-propyl)-8-fluoro-quinoline-3-carboxamide]",≥ 80%,≥ 80%,≥ 80%,≥ 80%,–,≥ 80%
"CC(Cc1ccccc1F)(CC(F)(F)F)NC(=O)c1cnc2c(F)cccc2c1 (stereo not drawn) [Compound E-98, 8-fluoro-N-[3,3,3-trifluoro-1-[(2-fluorophenyl)methyl]-1-methyl-propyl]quinoline-3-carboxamide]",≥ 80%,≥ 80%,≥ 80%,≥ 80%,131 to 133 °C,–
"Cc1c(F)ccc2cc(C(=O)NC(C)(Cc3ccccc3)CC(F)(F)F)cnc12 (stereo not drawn) [Compound E-100, N-(1-benzyl-3,3,3-trifluoro-1-methyl-propyl)-7-fluoro-8-methyl-quinoline-3-carboxamide]",≥ 80%,≥ 80%,≥ 80%,≥ 80%,127 to 129 °C,–
"CCC(Cc1ccccc1)(CC(F)(F)F)NC(=O)c1cnc2c(F)cccc2c1 (stereo not drawn) [Compound E-101, N-(1-benzyl-1-ethyl-3,3,3-trifluoro-propyl)-8-fluoro-quinoline-3-carboxamide]",≥ 80%,≥ 80%,≥ 80%,≥ 80%,127 to 129 °C,–
"CC(Cc1ccccc1)(CC(F)(F)F)NC(=O)c1cnc2c(F)c(F)ccc2c1 (stereo not drawn) [Compound E-102, N-(1-benzyl-3,3,3-trifluoro-1-methyl-propyl)-7,8-difluoro-quinoline-3-carboxamide]",≥ 80%,≥ 80%,≥ 80%,≥ 80%,158 to 160 °C,–
"Cc1c(C(=O)NC(C)(Cc2ccccc2)CC(F)(F)F)cnc2c(Cl)cccc12 (stereo not drawn) [Compound E-104, N-(1-benzyl-3,3,3-trifluoro-1-methyl-propyl)-8-chloro-4-methyl-quinoline-3-carboxamide]",≥ 80%,≥ 80%,≥ 80%,≥ 80%,184 to 186 °C,–
"CC(C)CC(C)(Cc1ccccc1)NC(=O)c1cc2cccc(F)c2nc1Cl (stereo not drawn) [Compound E-106, N-(1-benzyl-1,3-dimethyl-butyl)-2-chloro-8-fluoro-quinoline-3-carboxamide]",≥ 80%,≥ 80%,≥ 80%,≥ 80%,106 to 108 °C,–
"Cc1nc2c(C#N)cccc2cc1C(=O)NC(C)(Cc1ccccc1)CC(F)(F)F (stereo not drawn) [Compound E-113, N-(1-benzyl-3,3,3-trifluoro-1-methyl-propyl)-8-cyano-2-methyl-quinoline-3-carboxamide]",≥ 80%,≥ 80%,≥ 80%,≥ 80%,136 to 140 °C,–
"CCOC(OCC)C(C)(Cc1ccccc1)NC(=O)c1cnc2c(F)cccc2c1 (stereo not drawn) [Compound E-116, N-(1-benzyl-2,2-diethoxy-1-methyl-ethyl)-8-fluoro-quinoline-3-carboxamide]",≥ 80%,–,–,≥ 80%,–,≥ 80%
"CON=CC(C)(Cc1ccccc1)NC(=O)c1cnc2c(F)cccc2c1 (stereo not drawn) [Compound E-117, N-(1-benzyl-2-methoxyimino-1-methyl-ethyl)-8-fluoro-quinoline-3-carboxamide]",≥ 80%,–,–,≥ 80%,–,≥ 80%
"COCCC(C)(Cc1ccccc1)NC(=O)c1cnc2c(F)cccc2c1 (stereo not drawn) [Compound E-121, N-(1-benzyl-3-methoxy-1-methyl-propyl)-8-fluoro-quinoline-3-carboxamide]",≥ 80%,–,–,≥ 80%,–,≥ 80%
"C=C(C)C[C@@](C)(Cc1ccccc1)NC(=O)c1cnc2c(F)cccc2c1 [Compound F-9, N-[(1S)-1-benzyl-1,3-dimethyl-but-3-enyl]-8-fluoro-quinoline-3-carboxamide]",≥ 80%,≥ 80%,≥ 80%,≥ 80%,–,≥ 80%
"C=C(C)C[C@](C)(Cc1ccccc1)NC(=O)c1cnc2c(F)c(F)ccc2c1 [Compound F-20, N-[(1R)-1-benzyl-1,3-dimethyl-but-3-enyl]-7,8-difluoro-quinoline-3-carboxamide]",≥ 80%,≥ 80%,≥ 80%,≥ 80%,–,≥ 80%
"CC(C)(F)C[C@@](C)(Cc1ccccc1)NC(=O)c1cnc2c(F)cccc2c1 [Compound F-23, N-[(1R)-1-benzyl-3-fluoro-1,3-dimethyl-butyl]-8-fluoro-quinoline-3-carboxamide]",≥ 80%,≥ 80%,≥ 80%,≥ 80%,–,≥ 80%
"CC(F)(F)C[C@](C)(Cc1ccccc1)NC(=O)c1cnc2ccccc2c1 [Compound F-25, N-[(1S)-1-benzyl-3,3-difluoro-1-methyl-butyl]quinoline-3-carboxamide]",≥ 80%,≥ 80%,≥ 80%,≥ 80%,–,≥ 80%
"Cc1cccc2cc(C(=O)N[C@@](C)(Cc3ccccc3)CC(F)(F)F)cnc12 [Compound F-27, N-[(1S)-1-benzyl-3,3,3-trifluoro-1-methyl-propyl]-8-methyl-quinoline-3-carboxamide]",≥ 80%,≥ 80%,≥ 80%,≥ 80%,–,≥ 80%
"Cc1c(C(=O)N[C@@](C)(Cc2ccccc2)CC(F)(F)F)cnc2c(F)cccc12 [Compound F-29, N-[(1S)-1-benzyl-3,3,3-trifluoro-1-methyl-propyl]-8-fluoro-4-methyl-quinoline-3-carboxamide]",≥ 80%,≥ 80%,≥ 80%,≥ 80%,–,≥ 80%
"Cc1c(C(=O)N[C@](C)(Cc2ccccc2)CC(F)(F)F)cnc2c(F)cccc12 [Compound F-30, N-[(1R)-1-benzyl-3,3,3-trifluoro-1-methyl-propyl]-8-fluoro-4-methyl-quinoline-3-carboxamide]",≥ 80%,–,≥ 80%,≥ 80%,–,≥ 80%
"C[C@](Cc1ccccc1)(CC(F)F)NC(=O)c1cnc2c(F)cccc2c1 [Compound F-32, N-[(1S)-1-benzyl-3,3-difluoro-1-methyl-propyl]-8-fluoro-quinoline-3-carboxamide]",≥ 80%,≥ 80%,≥ 80%,≥ 80%,–,≥ 80%
